Experiments:
Type in all cases: cell-based, mouse
[1] = test system: α7 integrin (LacZ reporter in α7+/LacZ myotubes); assay: Myotube α7 integrin FDG assay (Burkin assay in myotubes, 96-well); details: myotubes
[2] = test system: α7 integrin (LacZ reporter in α7βgal+/− myoblasts); assay: Myoblast α7+/LacZ integrin FDG assay (Burkin assay in myoblasts, 96-well); details: α7+/LacZ myoblasts, 96-well
[3] = test system: β-galactosidase in CMV-LacZ C2C12 myoblasts; assay: CMV-LacZ secondary screen in C2C12 myoblasts (β-Gal stabilizing assay); details: for CMV-LACZ in Myoblasts (β-galactosidase activity relative to DMSO): CMV-LacZ C2C12 myoblasts; for CMV-LACZ in Myoblasts, value relative to DMSO: SU9516 analogs, C2C12 CMV-LacZ, N=2
Text: In order to determine compounds that acted to stabilize β-gal in myogenic cells, a CMV-LacZ C2C12 cell line was used in a secondary screen. The EGFP gene from the pEGFP (Clontech) vector was replaced by LACZ PCR product with digests of the vector/PCR product performed using EcoRI (NEB) and NotI (NEB) and ligated using T4 DNA Ligase (NEB) following standard procedures to produce the CMV-LACZ vector. The LACZ gene was generated by PCR from the pBK-RSV (Stratagene) vector using primers LACZ EcoRI F- and LACZ NotI R-. The CMV-LACZ vector was then digested with AfIII (NEB) to linearize the construct, which was then transfected in C2C12 myoblasts using Lipofectamine 2000 (Invitrogen) following the manufacturer's instructions. […] Clonal lines were selected and screened for βgal levels using the myoblast FDG assay.
The assays were used the original 96-well format and new dose-response curves for myoblasts (N=3-6 replicates for each data point), myotubes (N=3-6 replicates for data point), and CMV-LacZ secondary assay (N=2 replicates for each data point) using concentrations of 0.5 μM, 1 μM, 5 μM, 10 μM, 20 μM, and 40 μM (Tables 9-16).

[4] = test system: β-galactosidase in CMV-LacZ C2C12 myotubes; assay: CMV-LacZ secondary screen in C2C12 myotubes (β-Gal stabilizing assay); details: for CMV-LACZ in Myotubes, signal relative to DMSO: C2C12 CMV-LacZ myotubes, fold relative to DMSO; for CMV-LACZ in Myotubes, value relative to DMSO: SU9516 analogs, C2C12 CMV-LacZ, N=2
How it was run: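 Stable CMV-LacZ C2C12 clone; six-point curve 0.5–40 μM; duplicates.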

| Compound | Burkin Assay in Myotubes, α7 integrin LacZ reporter signal relative to DMSO ([1]; 0.5 uM) | Burkin Assay in Myotubes, α7 integrin LacZ reporter signal relative to DMSO ([1]; 1 uM) | Burkin Assay in Myotubes, α7 integrin LacZ reporter signal relative to DMSO ([1]; 5 uM) | Burkin Assay in Myotubes, α7 integrin LacZ reporter signal relative to DMSO ([1]; 10 uM) | Burkin Assay in Myotubes, α7 integrin LacZ reporter signal relative to DMSO ([1]; 20 uM) | Burkin Assay in Myotubes, α7 integrin LacZ reporter signal relative to DMSO ([1]; 40 uM) | Burkin Assay in Myoblasts, signal relative to DMSO ([2]; 0.5 uM) | Burkin Assay in Myoblasts, signal relative to DMSO ([2]; 1 uM) | Burkin Assay in Myoblasts, signal relative to DMSO ([2]; 5 uM) | Burkin Assay in Myoblasts, signal relative to DMSO ([2]; 10 uM) | Burkin Assay in Myoblasts, signal relative to DMSO ([2]; 20 uM) | Burkin Assay in Myoblasts, signal relative to DMSO ([2]; 40 uM) | CMV-LACZ in Myoblasts (β-galactosidase activity relative to DMSO) ([3]; 0.5 uM) | CMV-LACZ in Myoblasts (β-galactosidase activity relative to DMSO) ([3]; 1 uM) | CMV-LACZ in Myoblasts (β-galactosidase activity relative to DMSO) ([3]; 5 uM) | CMV-LACZ in Myoblasts (β-galactosidase activity relative to DMSO) ([3]; 10 uM) | CMV-LACZ in Myoblasts (β-galactosidase activity relative to DMSO) ([3]; 20 uM) | CMV-LACZ in Myoblasts (β-galactosidase activity relative to DMSO) ([3]; 40 uM) | CMV-LACZ in Myotubes, signal relative to DMSO ([4]; 0.5 uM) | CMV-LACZ in Myotubes, signal relative to DMSO ([4]; 1 uM) | other results |
| --- | --- | --- | --- | --- | --- | --- | --- | --- | --- | --- | --- | --- | --- | --- | --- | --- | --- | --- | --- | --- | --- |
| CC(C)(C)c1csc(NC(=O)c2cccnc2)n1 [MLS001164432-01] | 0.8982 | 0.9509 | 0.9878 | 0.9985 | 0.7121 | 0.8464 | 1.248 | 1.1813 | 1.091 | 1.067 | 0.7137 | 0.6622 | 0.9600 | 0.7842 | 1.1387 | 1.3183 | 1.1059 | 1.1289 | 0.9248 | 1.3543 | CMV-LACZ in Myotubes, signal relative to DMSO ([4]; 5 uM): 0.9500; CMV-LACZ in Myotubes, signal relative to DMSO ([4]; 10 uM): 1.2418; CMV-LACZ in Myotubes, signal relative to DMSO ([4]; 20 uM): 1.1358; CMV-LACZ in Myotubes, signal relative to DMSO ([4]; 40 uM): 1.1179 |
| CCCCN(CC)Cc1ccc(CNC(=S)Nc2ccccc2F)o1 [MLS000689562-01] | 1.081 | 1.035 | 0.9788 | 1.0159 | 0.7236 | 0.8547 | 1.074 | 1.014 | 1.013 | 1.224 | 0.9537 | 0.8817 | 0.8453 | 0.7409 | 0.8060 | 1.0858 | 0.9919 | 1.0619 | 0.9474 | 0.8652 | CMV-LACZ in Myotubes, signal relative to DMSO ([4]; 5 uM): 1.0300; CMV-LACZ in Myotubes, signal relative to DMSO ([4]; 10 uM): 0.8105; CMV-LACZ in Myotubes, signal relative to DMSO ([4]; 20 uM): 0.9824; CMV-LACZ in Myotubes, signal relative to DMSO ([4]; 40 uM): 0.9788 |
| COc1ccc(C(=O)Cn2nnc(-c3ccccc3NC(=O)c3ccco3)n2)cc1 [MLS000072290-01] | 1.109 | 1.121 | 0.9096 | 0.8405 | 0.475 | 0.1784 | 1.405 | 1.196 | 0.7334 | 0.6517 | 0.3984 | 0.2238 | 1.0579 | 0.9000 | 1.4390 | 1.3303 | 0.3911 | 0.2915 | 0.9362 | 1.1495 | CMV-LACZ in Myotubes, signal relative to DMSO ([4]; 5 uM): 1.3265; CMV-LACZ in Myotubes, signal relative to DMSO ([4]; 10 uM): 1.1459; CMV-LACZ in Myotubes, signal relative to DMSO ([4]; 20 uM): 1.3484; CMV-LACZ in Myotubes, signal relative to DMSO ([4]; 40 uM): 1.0653 |
| CC(C)(C)NC(=O)NC(=O)CN1CCN(Cc2ccccc2)CC1 [MLS001006302-01] | 0.9822 | 0.9373 | 1.039 | 1.212 | 0.7835 | 1.078 | 1.123 | 0.9303 | 0.9535 | 1.172 | 0.973 | 0.9414 | 0.9343 | 0.7663 | 0.8911 | 1.0767 | 0.9502 | 0.7646 | 1.0229 | 0.9143 | CMV-LACZ in Myotubes, signal relative to DMSO ([4]; 5 uM): 0.9398; CMV-LACZ in Myotubes, signal relative to DMSO ([4]; 10 uM): 1.0122; CMV-LACZ in Myotubes, signal relative to DMSO ([4]; 20 uM): 0.9010; CMV-LACZ in Myotubes, signal relative to DMSO ([4]; 40 uM): 0.9720 |
| Cc1cc(C)c(/C=C2\C(=O)Nc3ccccc32)[nH]1 [NCGC00094381-04] |  |  |  |  |  |  |  |  |  |  |  |  |  |  |  |  |  |  |  |  | CMV-LACZ in Myoblasts, value relative to DMSO ([3]; 0.5 uM): 1.0763; CMV-LACZ in Myoblasts, value relative to DMSO ([3]; 5 uM): 1.1366; CMV-LACZ in Myoblasts, value relative to DMSO ([3]; 10 uM): 0.9770; CMV-LACZ in Myoblasts, value relative to DMSO ([3]; 20 uM): 0.9330; CMV-LACZ in Myoblasts, value relative to DMSO ([3]; 40 uM): 0.9697; CMV-LACZ in Myotubes, value relative to DMSO ([4]; 0.5 uM): 1.0845; CMV-LACZ in Myotubes, value relative to DMSO ([4]; 1 uM): 1.4927; CMV-LACZ in Myotubes, value relative to DMSO ([4]; 5 uM): 1.2849; CMV-LACZ in Myotubes, value relative to DMSO ([4]; 10 uM): 1.1010; CMV-LACZ in Myotubes, value relative to DMSO ([4]; 20 uM): 3.8710; CMV-LACZ in Myotubes, value relative to DMSO ([4]; 40 uM): 8.1220 |
